This note sets out measurements from patent publication US4076816A, “Antibiotic mixture” (priority 1974, dated 1978).

Structures are written as SMILES. Where a name gives a salt, the structure may show the parent alone. A value given as a limit tells only on which side of the number the result lay.

Common to all, as to type: cell-based
Test [1] relates to Haemophilus influenzae. In words: combined activity in vitro, serial dilutions in chocolate agar plates arranged in form of a chess board, MIC. The settings on record: compound alone. As to the method: Combined activity of FL 1060 and trimethoprim against Haemophilus influenzae in vitro. Serial dilutions of FL 1060 and trimethoprim were performed in "chocolate agar"^x) plates arranged in form of a chess board. Inoculum: 3.5 μl drops containing about 10^7 cells/ml. Incubation: overnight at 36° C. ^x) Caseinhydrolysate (pancreatic) 1.3%, dextrose 0.085%, sodium chloride 0.21%, 1-cystine 0.004%, agar (Oxoid No. 1) 0.6% in distilled water, pH 7.1 after autoclaving, horse blood (defibriated) 5%, yeast extract (Difco) 1.3% (membrane filtered) added at 80° C.

Test [2] deals with Escherichia coli (strain Leo HA2). Put plainly: in vitro serial dilution test, minimum inhibitory concentration. The conditions noted are these: 10^6 cells/ml, over night at 37° C, compound alone. As to the method: The in vitro activity of FL 1060, trimethoprim, and combinations of the two compounds against Escherichia coli (strain Leo HA2) was determined in a serial dilution test. […] Minimum inhibitory concentrations (MIC) were taken as the lowest concentrations of either of the compounds alone or of a combination of both at which no visible growth occurred.

In test [3] the test system is Klebsiella pneumoniae (Leo HE). Put plainly: serial dilution test (technique of Example 1), medium with addition of 10 g of sodium chloride per liter, MIC. The conditions noted are these: medium + 10 g sodium chloride per liter, compound alone. Here is the method: (§1) A fluid medium containing:
(§2) and containing the appropriate concentrations of the compounds, or of the combinations of them was inoculated with 10^6 cells/ml organisms and incubated over night at 37° C. Minimum inhibitory concentrations (MIC) were taken as the lowest concentrations of either of the compounds alone or of a combination of both at which no visible growth occurred.

The subject of test [4] is Escherichia coli (Leo HA2). The description is as above. The settings on record: medium + 10 g sodium chloride per liter, compound alone. Here is the method:
as §1, §2

Test [5] has as its system Salmonella typhimurium (Leo HL2). The description is as above. The conditions noted are these: Salmonella enterica, medium + 10 g sodium chloride per liter, compound alone. Here is the method: as §1, §2
[6] abbreviates: strain IX14, overnight at 36° C.
Setting [7] is: strain IX15, overnight at 36° C.

`CC1(C)S[C@@H]2[C@H](N=CN3CCCCCC3)C(=O)N2[C@H]1C(=O)O` [FL 1060, 6-[(hexahydro-1H-azepin-1-yl)-methyleneamino]-penicillanic acid, hydrochloride, dihydrate]: the MIC was over 100 µg/mL in test [1] (strain IX5, overnight at 36° C); over 100 µg/mL in test [1] (strain IX6, overnight at 36° C); over 100 µg/mL in test [1] (setting [6]); over 100 µg/mL in test [1] (setting [7]); 0.016 µg/mL in test [2]; 0.5 µg/mL in test [3]. Also, the MIC was 50 µg/mL in test [4] and over 100 µg/mL in test [5].
For the molecule `COc1cc(Cc2cnc(N)nc2N)cc(OC)c1OC` [Trimethoprim, 2,4-diamino-5(3,4,5-trimethoxybenzyl)-pyrimidine], the MIC in test [1] (strain IX5, overnight at 36° C) was 1 µg/mL; in test [1] (strain IX6, overnight at 36° C), 3.2 µg/mL; in test [1] (setting [6]) it was over 100 µg/mL; in test [1] (setting [7]), over 100 µg/mL; in test [2], 100 µg/mL; in test [3], 1.6 µg/mL. Moreover, the values for the MIC in test [4] and in test [5] were over 50 µg/mL and over 100 µg/mL, respectively.
